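Cultured in 96-well plates, cells were exposed to test compound for 48 hours across five concentrations. At the TGI there is no net growth.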
Columns and labels:
Experiment in all cases: NCI-60 cell line screen, 48 h
A549 NSCLC = tested on: A549 NSCLC
CAKI-1 renal = tested on: CAKI-1 renal
DU-145 prostate = tested on: DU-145 prostate
HCC-2998 colon = tested on: HCC-2998 colon
HL-60(TB) leukemia = tested on: HL-60(TB) leukemia
HOP-62 NSCLC = tested on: HOP-62 NSCLC
HOP-92 NSCLC = tested on: HOP-92 NSCLC
HS 578T breast = tested on: HS 578T breast
LOX IMVI melanoma = tested on: LOX IMVI melanoma
M14 melanoma = tested on: M14 melanoma
MDA-N = tested on: MDA-N
OVCAR-3 ovarian = tested on: OVCAR-3 ovarian
RXF 393 renal = tested on: RXF 393 renal
SK-MEL-28 melanoma = tested on: SK-MEL-28 melanoma
SN12C renal = tested on: SN12C renal
SNB-75 CNS = tested on: SNB-75 CNS
SW-620 colon = tested on: SW-620 colon
T-47D breast = tested on: T-47D breast
UACC-257 melanoma = tested on: UACC-257 melanoma
MALME-3M melanoma = tested on: MALME-3M melanoma

SMILES	TGI (A549 NSCLC)	TGI (CAKI-1 renal)	TGI (DU-145 prostate)	TGI (HCC-2998 colon)	TGI (HL-60(TB) leukemia)	TGI (HOP-62 NSCLC)	TGI (HOP-92 NSCLC)	TGI (HS 578T breast)	TGI (LOX IMVI melanoma)	TGI (M14 melanoma)	TGI (MDA-N)	TGI (OVCAR-3 ovarian)	TGI (RXF 393 renal)	TGI (SK-MEL-28 melanoma)	TGI (SN12C renal)	TGI (SNB-75 CNS)	TGI (SW-620 colon)	TGI (T-47D breast)	TGI (UACC-257 melanoma)	TGI (MALME-3M melanoma)
O=C(O/C=C\OC1CCCC1(c1ccccc1)c1ccccc1)c1ccccc1 (centres undefined)	> 68.5 µM	> 63.6 µM	13.6 µM	> 49.4 µM	4.68 µM	36.9 µM	4.97 µM	23.6 µM	3.22 µM	9.08 µM	9.32 µM	21.3 µM	15 µM	18.3 µM	13.7 µM	20.9 µM	11.3 µM	7.42 µM	33 µM	–
CN(C)CC1CCC/C(=C\c2ccc(Cl)cc2)C1=O (centres undefined)	32.4 µM	3.72 µM	29.1 µM	18.1 µM	–	34.2 µM	10.5 µM	12.3 µM	3.25 µM	6.15 µM	5.17 µM	12.1 µM	–	9.04 µM	8.55 µM	14.9 µM	4.08 µM	13.4 µM	12.3 µM	4.76 µM
CN1CCc2c(sc3ncn(C)c(=N)c23)C1	> 100 µM	> 100 µM	> 100 µM	–	> 100 µM	> 100 µM	> 100 µM	> 100 µM	> 100 µM	> 100 µM	> 100 µM	> 100 µM	> 100 µM	> 100 µM	> 100 µM	> 100 µM	> 100 µM	> 100 µM	> 100 µM	> 100 µM
COc1cc(C(C)=O)cc(C(=O)N(C(C)C)C(C)C)c1[Si](C)(C)C	> 100 µM	> 100 µM	> 100 µM	–	> 100 µM	> 100 µM	> 100 µM	> 100 µM	> 100 µM	> 100 µM	> 100 µM	> 100 µM	–	> 100 µM	–	56.4 µM	> 100 µM	> 100 µM	> 100 µM	–
CN1C(=O)c2ccccc2OC12C=Cc1ccc(O)cc1O2 (centres undefined)	> 100 µM	58 µM	69.7 µM	50.8 µM	58.5 µM	73.7 µM	80.9 µM	84.3 µM	26.8 µM	45.3 µM	> 100 µM	63.6 µM	–	> 100 µM	> 100 µM	80.1 µM	> 100 µM	52.6 µM	43.6 µM	–
O=C(N[C@@H](c1ccccc1)[C@@H](O)C(=O)OCc1ccc([N+](=O)[O-])cc1)c1ccccc1	> 100 µM	> 100 µM	> 100 µM	> 100 µM	–	> 100 µM	> 100 µM	> 100 µM	> 100 µM	–	> 100 µM	> 100 µM	> 100 µM	–	> 100 µM	> 100 µM	> 100 µM	> 100 µM	> 100 µM	> 100 µM
O=C(c1cccs1)N(C(=O)N1CCN(c2ccccc2)CC1)S(=O)(=O)c1ccccc1	98.4 µM	59.9 µM	60.9 µM	> 100 µM	45 µM	> 100 µM	55.6 µM	65.9 µM	–	36 µM	41.8 µM	> 100 µM	–	56.3 µM	35.1 µM	61.2 µM	> 100 µM	40.4 µM	69.9 µM	42.1 µM
O=c1oc2ccccc2cc1-c1cn2ccccc2n1	21 µM	20.5 µM	21 µM	39.4 µM	–	14.8 µM	> 100 µM	53.5 µM	33.4 µM	28.9 µM	19.8 µM	14.3 µM	13.8 µM	17.7 µM	17.7 µM	6.37 µM	31.6 µM	34.6 µM	14.3 µM	14.7 µM
[N-]=[N+]=Nc1cc(=O)[nH]nc1-c1ccccc1	> 100 µM	–	> 100 µM	> 100 µM	> 100 µM	> 100 µM	> 100 µM	> 100 µM	> 100 µM	> 100 µM	> 100 µM	> 100 µM	> 100 µM	> 100 µM	> 100 µM	> 100 µM	> 100 µM	> 100 µM	> 100 µM	> 100 µM
Cc1cn(C2CC(O)C(CO[Si](C)(C)C(C)(C)C)OC2OC(C)C)c(=O)[nH]c1=O (centres undefined)	> 100 µM	> 100 µM	> 100 µM	62.7 µM	–	–	79.4 µM	> 100 µM	32.5 µM	92.5 µM	> 100 µM	46.3 µM	88.7 µM	> 100 µM	> 100 µM	> 100 µM	> 100 µM	> 100 µM	> 100 µM	> 100 µM
Cc1nc2ccc(NC(=S)Nc3ccccc3)cc2c(=O)n1-c1ccccc1	–	> 100 µM	> 100 µM	> 100 µM	> 100 µM	> 100 µM	–	> 100 µM	> 100 µM	–	> 100 µM	> 100 µM	> 100 µM	> 100 µM	> 100 µM	> 100 µM	> 100 µM	> 100 µM	> 100 µM	> 100 µM
COC(=O)c1c(C#N)[nH]c(-c2ccsc2)c1C(=O)OC	> 100 µM	> 100 µM	> 100 µM	–	–	> 100 µM	> 100 µM	> 100 µM	> 100 µM	> 100 µM	> 100 µM	> 100 µM	> 100 µM	> 100 µM	> 100 µM	> 100 µM	> 100 µM	> 100 µM	> 100 µM	> 100 µM
O=S1(=O)Cc2ccc3c4c2-c2c(ccc5ccc(c-4c25)CS(=O)(=O)C3)C1	> 100 µM	–	> 100 µM	> 100 µM	> 100 µM	> 100 µM	> 100 µM	> 100 µM	> 100 µM	> 100 µM	> 100 µM	> 100 µM	–	> 100 µM	> 100 µM	> 100 µM	> 100 µM	> 100 µM	> 100 µM	> 100 µM

Source: PubChem BioAssay (NCI)
